Source: patent US20240208961A1, “EIF4E INHIBITORS AND USES THEREOF” (PIC Therapeutics, Inc., priority 2022, published 2024)
Where “and” joins values, the source holds several entries; their conditions need not be identical. Equal values may be shown once. Read-outs that look alike come from different tables or passages of the source.

Assays:
[1] = Pharmacokinetic studies of certain compounds in female Balb/c mice (Example 5); assay type: in vivo; settings: for concentration at 0.083 h / concentration at 0.25 h / concentration at 0.5 hr / concentration at 1 hr / concentration at 2 hr / concentration at 4 hr / concentration at 8 hr / concentration at 24 hr / concentration at 0.5 h / concentration at 1 h / concentration at 2 h / concentration at 4 h / concentration at 8 h / concentration at 24 h: female, Balb/c
Procedure: Pharmacokinetic studies were performed using Balb/c mice, 15-20 g, 6-9 weeks, female, N=9, purchased from Jihui Laboratory Animal Co. LTD. For compound I-29, Balb/c mice, 19-21 g, 9-11 weeks, female, N=9, were used. The mice were fasted overnight and fed at 4 h post dosing.
Animals were dosed via oral gavage (PO) or tail vein injection (IV) with compound. Sampling occurred at 0.083, 0.25, 0.5, 1, 2, 4, 8, and 24 h post dose (8 time points). The animals were restrained manually at the designated time points. Approx. […] of blood was taken from the animals via facial vein for semi-serial bleeding into tubes with K2EDTA. Blood samples were put on ice and centrifuged at 4° C. (2000 g, 5 min) to obtain plasma within 15 min after sample collection. Plasma samples were stored in dry ice temporarily and at approximately −70° C. until analysis.
For oral gavage, the compound was dosed as a suspension in 1% sodium carboxymethyl cellulose (CMC) and 0.2% Tween 80 in water. For 23.8 mg/kg and 30 mg/kg doses, 3 mg/mL was used; for 50 mg/kg doses, 5 mg/mL was used; and for 100 mg/kg doses, 10 mg/mL was used.
For IV administration, the compound was dosed as a solution in 5% DMSO, 5% Solutol HS15 and 90% saline. For 1 mg/kg and 1.48 mg/kg doses, 0.2 mg/mL was used.
Plasma samples were analyzed using LC-MS using a calibration curve of known concentrations.
The results of these studies are summarized in Tables 11-21 below and in FIGS. 2-8. […] BQL=below quantifiable limit for compound in female Balb/c mouse plasma samples. NA=not available. PK parameters were estimated by non-compartmental model using WinNonlin 8.2. If the adjusted rsq (linear regression coefficient of the concentration value on the terminal phase) was less than 0.9, T1/2 might not have been accurately estimated. F value was determined by the following equation: • If AUClast/AUCINF>80%:
F=(AUCINF-EX×DOSEIV)/(AUCINF-IV×DOSEEX)[…] • If AUClast/AUCINF<80% or AUCINF not available:
F=(AUClast-EX×DOSEIV)/(AUClast-IV×DOSEEX)*1000

ZR-75-1 = test: Cell viability assay, adherent cell line, 5 day Alamar Blue (Example 8): ZR-75-1; assay type: cell-based; settings: Homo sapiens, 120 h, ZR-75-1, Breast Cancer Cell Viability
[2] = mouse, plasma, I-27 PO 30 mg/kg

Plasma concentration Individual ([1]; I-27 IV 1 mg/kg, 0.083 hr, 1 mg/kg): 4810 ng/mL and 5030 ng/mL
Plasma concentration Individual ([1]; I-27 IV 1 mg/kg, 0.25 hr, 1 mg/kg): 1300 ng/mL and 1270 ng/mL
Plasma concentration Individual ([1]; I-27 IV 1 mg/kg, 0.5 hr, 1 mg/kg): 584 ng/mL and 448 ng/mL
Plasma concentration Individual ([1]; I-27 IV 1 mg/kg, 1 hr, 1 mg/kg): 393 ng/mL and 335 ng/mL
Plasma concentration Individual ([1]; I-27 IV 1 mg/kg, 2 hr, 1 mg/kg): 213 ng/mL and 163 ng/mL
Plasma concentration Individual ([1]; I-27 IV 1 mg/kg, 4 hr, 1 mg/kg): 31.7 ng/mL and 29.9 ng/mL
Plasma concentration Individual ([1]; I-27 IV 1 mg/kg, 8 hr, 1 mg/kg): 5.02 ng/mL and 8.89 ng/mL
Plasma concentration Individual ([1]; I-27 IV 1 mg/kg, 24 hr, BQL = below quantifiable limit of 1.00 ng/mL, 1 mg/kg): BQL
F ([1]; I-27 PO 30 mg/kg vs IV 1 mg/kg): 27.4%
Plasma concentration Individual ([1]; I-27 PO 30 mg/kg, 0.083 hr, 30 mg/kg): 80.4 ng/mL and 62.5 ng/mL
Plasma concentration Individual ([1]; I-27 PO 30 mg/kg, 0.25 hr, 30 mg/kg): 368 ng/mL and 587 ng/mL
Plasma concentration Individual ([1]; I-27 PO 30 mg/kg, 0.5 hr, 30 mg/kg): 1590 ng/mL and 1270 ng/mL
Plasma concentration Individual ([1]; I-27 PO 30 mg/kg, 1 hr, 30 mg/kg): 2120 ng/mL and 2090 ng/mL
Plasma concentration Individual ([1]; I-27 PO 30 mg/kg, 2 hr, 30 mg/kg): 2860 ng/mL and 1950 ng/mL
Plasma concentration Individual ([1]; I-27 PO 30 mg/kg, 4 hr, 30 mg/kg): 2160 ng/mL and 1760 ng/mL
Plasma concentration Individual ([1]; I-27 PO 30 mg/kg, 8 hr, 30 mg/kg): 715 ng/mL and 493 ng/mL
Plasma concentration Individual ([1]; I-27 PO 30 mg/kg, 24 hr, 30 mg/kg): 11.0 ng/mL and 10.1 ng/mL
concentration at 0.083 h ([1]; mouse, plasma, iv, 1 mg/kg, I-27 IV 1 mg/kg, 0.083 hr, read-out: Plasma concentration Individual): 4410 ng/mL
concentration at 0.083 h ([1]; mouse, plasma, iv, 1 mg/kg, I-27 IV 1 mg/kg, 0.083 hr, read-out: Plasma concentration Mean): 4750 ng/mL
concentration at 0.25 h ([1]; mouse, plasma, iv, 1 mg/kg, I-27 IV 1 mg/kg, 0.25 hr, read-out: Plasma concentration Individual): 865 ng/mL
concentration at 0.25 h ([1]; mouse, plasma, iv, 1 mg/kg, I-27 IV 1 mg/kg, 0.25 hr, read-out: Plasma concentration Mean): 1140 ng/mL
concentration at 0.5 hr ([1]; mouse, plasma, iv, 1 mg/kg, I-27 IV 1 mg/kg, 0.5 hr, read-out: Plasma concentration Individual): 638 ng/mL
concentration at 0.5 hr ([1]; mouse, plasma, iv, 1 mg/kg, I-27 IV 1 mg/kg, 0.5 hr, read-out: Plasma concentration Mean): 557 ng/mL
concentration at 1 hr ([1]; mouse, plasma, iv, 1 mg/kg, I-27 IV 1 mg/kg, 1 hr, read-out: Plasma concentration Individual): 341 ng/mL
concentration at 1 hr ([1]; mouse, plasma, iv, 1 mg/kg, I-27 IV 1 mg/kg, 1 hr, read-out: Plasma concentration Mean): 356 ng/mL
concentration at 2 hr ([1]; mouse, plasma, iv, 1 mg/kg, I-27 IV 1 mg/kg, 2 hr, read-out: Plasma concentration Individual): 142 ng/mL
concentration at 2 hr ([1]; mouse, plasma, iv, 1 mg/kg, I-27 IV 1 mg/kg, 2 hr, read-out: Plasma concentration Mean): 173 ng/mL
concentration at 4 hr ([1]; mouse, plasma, iv, 1 mg/kg, I-27 IV 1 mg/kg, 4 hr, read-out: Plasma concentration Individual): 55.9 ng/mL
concentration at 4 hr ([1]; mouse, plasma, iv, 1 mg/kg, I-27 IV 1 mg/kg, 4 hr, read-out: Plasma concentration Mean): 39.2 ng/mL
concentration at 8 hr ([1]; mouse, plasma, iv, 1 mg/kg, I-27 IV 1 mg/kg, 8 hr, read-out: Plasma concentration Individual): 7.46 ng/mL
concentration at 8 hr ([1]; mouse, plasma, iv, 1 mg/kg, I-27 IV 1 mg/kg, 8 hr, read-out: Plasma concentration Mean): 7.12 ng/mL
concentration at 24 hr ([1]; mouse, plasma, iv, 1 mg/kg, I-27 IV 1 mg/kg, 24 hr, BQL = below quantifiable limit of 1.00 ng/mL, read-out: Plasma concentration Individual): 1.09 ng/mL
concentration at 24 hr ([1]; mouse, plasma, iv, 1 mg/kg, I-27 IV 1 mg/kg, 24 hr, BQL = below quantifiable limit of 1.00 ng/mL, read-out: Plasma concentration Mean): 1.09 ng/mL
concentration at 0.083 h ([1]; mouse, plasma, po, 30 mg/kg, I-27 PO 30 mg/kg, 0.083 hr, read-out: Plasma concentration Individual): 40.5 ng/mL
concentration at 0.083 h ([1]; mouse, plasma, po, 30 mg/kg, I-27 PO 30 mg/kg, 0.083 hr, read-out: Plasma concentration Mean): 61.1 ng/mL
concentration at 0.25 h ([1]; mouse, plasma, po, 30 mg/kg, I-27 PO 30 mg/kg, 0.25 hr, read-out: Plasma concentration Individual): 448 ng/mL
concentration at 0.25 h ([1]; mouse, plasma, po, 30 mg/kg, I-27 PO 30 mg/kg, 0.25 hr, read-out: Plasma concentration Mean): 468 ng/mL
concentration at 0.5 h ([1]; mouse, plasma, po, 30 mg/kg, I-27 PO 30 mg/kg, 0.5 hr, read-out: Plasma concentration Individual): 2080 ng/mL
concentration at 0.5 h ([1]; mouse, plasma, po, 30 mg/kg, I-27 PO 30 mg/kg, 0.5 hr, read-out: Plasma concentration Mean): 1650 ng/mL
concentration at 1 h ([1]; mouse, plasma, po, 30 mg/kg, I-27 PO 30 mg/kg, 1 hr, read-out: Plasma concentration Individual): 1930 ng/mL
concentration at 1 h ([1]; mouse, plasma, po, 30 mg/kg, I-27 PO 30 mg/kg, 1 hr, read-out: Plasma concentration Mean): 2050 ng/mL
concentration at 2 h ([1]; mouse, plasma, po, 30 mg/kg, I-27 PO 30 mg/kg, 2 hr, read-out: Plasma concentration Individual): 2040 ng/mL
concentration at 2 h ([1]; mouse, plasma, po, 30 mg/kg, I-27 PO 30 mg/kg, 2 hr, read-out: Plasma concentration Mean): 2280 ng/mL
concentration at 4 h ([1]; mouse, plasma, po, 30 mg/kg, I-27 PO 30 mg/kg, 4 hr, read-out: Plasma concentration Individual): 2050 ng/mL
concentration at 4 h ([1]; mouse, plasma, po, 30 mg/kg, I-27 PO 30 mg/kg, 4 hr, read-out: Plasma concentration Mean): 1990 ng/mL
concentration at 8 h ([1]; mouse, plasma, po, 30 mg/kg, I-27 PO 30 mg/kg, 8 hr, read-out: Plasma concentration Individual): 613 ng/mL
concentration at 8 h ([1]; mouse, plasma, po, 30 mg/kg, I-27 PO 30 mg/kg, 8 hr, read-out: Plasma concentration Mean): 607 ng/mL
concentration at 24 h ([1]; mouse, plasma, po, 30 mg/kg, I-27 PO 30 mg/kg, 24 hr, read-out: Plasma concentration Individual): 14.2 ng/mL
concentration at 24 h ([1]; mouse, plasma, po, 30 mg/kg, I-27 PO 30 mg/kg, 24 hr, read-out: Plasma concentration Mean): 11.8 ng/mL
AUC(0-inf) ([1]; mouse, plasma, I-27 IV 1 mg/kg): 2170 ng·h/mL
AUC(0-t) ([1]; mouse, plasma, I-27 IV 1 mg/kg): 2160 ng·h/mL
C0 ([1]; mouse, plasma, I-27 IV 1 mg/kg): 9630 ng/mL
MRT inf ([1]; mouse, plasma, I-27 IV 1 mg/kg): 1.13 h
MRT last ([1]; mouse, plasma, I-27 IV 1 mg/kg): 1.04 h
clearance ([1]; mouse, plasma, I-27 IV 1 mg/kg): 7.68 mL/min/kg
half-life ([1]; mouse, plasma, I-27 IV 1 mg/kg): 4.29 h
Vd ([1]; mouse, plasma, I-27 IV 1 mg/kg, read-out: Vss): 0.52 L/kg
AUC(0-inf) [1, 2]: 17900 ng·h/mL
AUC(0-t) [1, 2]: 17800 ng·h/mL
Cmax [1, 2]: 2280 ng/mL
MRT inf [1, 2]: 4.74 h
MRT last [1, 2]: 4.68 h
Tmax [1, 2]: 2 h
half-life [1, 2]: 2.73 h
Structure (SMILES): CC(C)Cc1sc(Nc2ncc(-c3cccs3)cc2C(=O)O)nc1C1(C)CCCCC1 [Compound I-27]
IC50 (ZR-75-1): ≤ 1 µM
